Reference: patent publication US9914736B2, “TrKA kinase inhibitors, compositions and methods thereof” (Merck Sharp & Dohme Corp., priority 2014, dated 2018)
pIC50: −log10 of the molar value.

Molecular target: human TrkA receptor (Homo sapiens (Human), UniProt P04629)
Experiment: DiscoverX PathHunter TrkA functional assay
Assay type: cell-based
Details: U2OS cells expressing human TrkA-ProLink, Shc1-EA and p75NTR; compound 1 h, then NGF at ~80% of maximal response for 3 h; luminescence

Chain of human TrkA receptor (P04629 33-796): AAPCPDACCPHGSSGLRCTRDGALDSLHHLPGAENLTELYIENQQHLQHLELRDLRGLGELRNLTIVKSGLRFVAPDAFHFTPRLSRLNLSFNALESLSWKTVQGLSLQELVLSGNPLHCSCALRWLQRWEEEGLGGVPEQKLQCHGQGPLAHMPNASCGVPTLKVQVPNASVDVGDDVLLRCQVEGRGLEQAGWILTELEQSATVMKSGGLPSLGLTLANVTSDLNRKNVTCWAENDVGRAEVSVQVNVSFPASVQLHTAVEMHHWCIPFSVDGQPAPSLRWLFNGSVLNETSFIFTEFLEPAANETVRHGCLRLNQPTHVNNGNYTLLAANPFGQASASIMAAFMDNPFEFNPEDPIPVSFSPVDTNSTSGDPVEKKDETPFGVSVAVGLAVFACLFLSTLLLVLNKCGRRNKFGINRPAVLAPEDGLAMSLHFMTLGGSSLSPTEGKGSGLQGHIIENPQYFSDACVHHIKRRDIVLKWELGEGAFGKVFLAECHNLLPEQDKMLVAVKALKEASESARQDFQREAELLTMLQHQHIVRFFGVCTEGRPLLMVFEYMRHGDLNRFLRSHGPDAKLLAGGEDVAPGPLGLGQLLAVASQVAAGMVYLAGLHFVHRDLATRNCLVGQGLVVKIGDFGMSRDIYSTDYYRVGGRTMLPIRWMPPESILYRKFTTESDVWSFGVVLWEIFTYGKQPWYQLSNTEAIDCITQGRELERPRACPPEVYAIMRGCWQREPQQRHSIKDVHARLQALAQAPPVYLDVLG

Row | Compound | pIC50
1 | Cn1ccc(-c2cc(C(=O)Nc3c(-c4ccccc4)nc4n3CCC4)ccc2C(F)(F)F)n1 [Compound 79, 3-(1-methyl-1H-pyrazol-3-yl)-N-(2-phenyl-6,7-dihydro-5H-pyrrolo[1,2-a]imidazol-3-yl)-4-(trifluoromethyl)benzamide] | 7.36
2 | Cn1ccc(-c2cc(C(=O)Nc3cc(Cc4nnnn4C)nn3-c3ccccc3)c(Cl)cc2C(F)(F)F)n1 [Compound 80, 2-chloro-5-(1-methyl-1H-pyrazol-3-yl)-N-(3-((1-methyl-1H-tetrazol-5-yl)methyl)-1-phenyl-1H-pyrazol-5-yl)-4-(trifluoromethyl)benzamide] | 9.11
3 | Cn1ccc(-c2cc(C(=O)Nc3c4c(nn3-c3ccc(F)cc3)CCC4)ccc2C(F)(F)F)n1 [Compound 82, N-[2-(4-fluorophenyl)-2,4,5,6-tetrahydrocyclopenta[c]pyrazol-3-yl]-3-(1-methyl-1H-pyrazol-3-yl)-4-(trifluoromethyl)benzamide] | 7.48
4 | Cc1cc(-n2nc(C(=O)NCc3cncnc3)cc2NC(=O)c2ccc(C(F)(F)F)c(-c3ccn(C)n3)c2)[nH]n1 [Compound 83, 5′-methyl-5-(3-(1-methyl-1H-pyrazol-3-yl)-4-(trifluoromethyl)benzamido)-N-(pyrimidin-5-ylmethyl)-2′H-[1,3′-bipyrazole]-3-carboxamide] | 8.80
5 | Cn1ccc(-c2cc(C(=O)Nc3cc(Cc4nnn(C)n4)nn3-c3ccc(F)cc3)c(F)cc2C(F)(F)F)n1 [Compound 85, 2-fluoro-N-(1-(4-fluorophenyl)-3-((2-methyl-2H-tetrazol-5-yl)methyl)-1H-pyrazol-5-yl)-5-(1-methyl-1H-pyrazol-3-yl)-4-(trifluoromethyl)benzamide] | 8.92
6 | Cn1cc(Cc2cc(NC(=O)c3ccc(C(F)(F)F)c(-c4ccn(C)n4)c3)n(-c3ccc(F)cc3)n2)cn1 [Compound 90, N-(1-(4-fluorophenyl)-3-((1-methyl-1H-pyrazol-4-yl)methyl)-1H-pyrazol-5-yl)-3-(1-methyl-1H-pyrazol-3-yl)-4-(trifluoromethyl)benzamide] | 8.44
7 | Cn1ccc(-c2cc(C(=O)Nc3cc(Cc4cnc(N)nc4)nn3-c3ccc(F)cc3)ccc2C(F)(F)F)n1 [Compound 91, N-(3-((2-aminopyrimidin-5-yl)methyl)-1-(4-fluorophenyl)-1H-pyrazol-5-yl)-3-(1-methyl-1H-pyrazol-3-yl)-4-(trifluoromethyl)benzamide] | 8.21
8 | Cn1ccc(-c2cc(C(=O)Nc3cc(Cc4nnc(N)o4)nn3-c3ccc(F)cc3)ccc2C(F)(F)F)n1 [Compound 92, N-(3-((5-amino-1,3,4-oxadiazol-2-yl)methyl)-1-(4-fluorophenyl)-1H-pyrazol-5-yl)-3-(1-methyl-1H-pyrazol-3-yl)-4-(trifluoromethyl)benzamide] | 8.89
9 | Cn1ccc(-c2cc(C(=O)Nc3cc(Cc4cnc(N)cn4)nn3-c3ccc(F)cc3)ccc2C(F)(F)F)n1 [Compound 94, N-(3-((5-aminopyrazin-2-yl)methyl)-1-(4-fluorophenyl)-1H-pyrazol-5-yl)-3-(1-methyl-1H-pyrazol-3-yl)-4-(trifluoromethyl)benzamide] | 8.77
10 | Cn1ccc(-c2cc(C(=O)Nc3cc(Cc4cncnc4)nn3-c3ccc(F)cc3)ccc2C(F)(F)F)n1 [Compound 95, N-(1-(4-fluorophenyl)-3-(pyrimidin-5-ylmethyl)-1H-pyrazol-5-yl)-3-(1-methyl-1H-pyrazol-3-yl)-4-(trifluoromethyl)benzamide] | 8.85
11 | Cn1ccc(-c2cc(C(=O)Nc3cc(Cc4cc[nH]n4)nn3-c3ccc(F)cc3)ccc2C(F)(F)F)n1 [Compound 96, N-(3-((1H-pyrazol-3-yl)methyl)-1-(4-fluorophenyl)-1H-pyrazol-5-yl)-3-(1-methyl-1H-pyrazol-3-yl)-4-(trifluoromethyl)benzamide] | 8.43
12 | Cn1ccc(-c2cc(C(=O)Nc3cc(Cc4ccc[nH]c4=O)nn3-c3ccc(F)cc3)ccc2C(F)(F)F)n1 [Compound 98, N-(1-(4-fluorophenyl)-3-((2-oxo-1,2-dihydropyridin-3-yl)methyl)-1H-pyrazol-5-yl)-3-(1-methyl-1H-pyrazol-3-yl)-4-(trifluoromethyl)benzamide] | 8.42
13 | Cn1ccc(-c2cc(C(=O)Nc3cc(Cc4nnnn4C)nn3-c3ccc(F)cc3)c(F)cc2C(F)(F)F)n1 [Compound 102, 2-fluoro-N-(1-(4-fluorophenyl)-3-((1-methyl-1H-tetrazol-5-yl)methyl)-1H-pyrazol-5-yl)-5-(1-methyl-1H-pyrazol-3-yl)-4-(trifluoromethyl)benzamide] | 9.40
14 | Cn1ccc(-c2cc(C(=O)Nc3cc(Cc4ccc(=O)[nH]n4)nn3-c3ccc(F)cc3)c(F)cc2C(F)(F)F)n1 [Compound 105, 2-fluoro-N-(1-(4-fluorophenyl)-3-((6-oxo-1,6-dihydropyridazin-3-yl)methyl)-1H-pyrazol-5-yl)-5-(1-methyl-1H-pyrazol-3-yl)-4-(trifluoromethyl)benzamide] | 9.01
15 | O=C(Nc1sc(-c2cnn(CCO)c2)nc1-c1ccccc1)c1cc(-c2ncccn2)c(C(F)(F)F)cc1F [Compound 106, 2-fluoro-N-(2-(1-(2-hydroxyethyl)-1H-pyrazol-4-yl)-4-phenylthiazol-5-yl)-5-(pyrimidin-2-yl)-4-(trifluoromethyl)benzamide] | 8.17
16 | Cn1ccc(-c2cc(C(=O)Nc3c4c(nn3-c3ccccc3)CC(=O)NC4)c(F)cc2C(F)(F)F)n1 [Compound 108, 2-fluoro-5-(1-methyl-1H-pyrazol-3-yl)-N-(6-oxo-2-phenyl-4,5,6,7-tetrahydro-2H-pyrazolo[4,3-c]pyridin-3-yl)-4-(trifluoromethyl)benzamide] | 8.34
17 | Cn1ccc(-c2cc(C(=O)Nc3cn(CCO)nc3-c3ccccc3)c(F)cc2C(F)(F)F)n1 [Compound 109, 2-fluoro-N-(1-(2-hydroxyethyl)-3-phenyl-1H-pyrazol-4-yl)-5-(1-methyl-1H-pyrazol-3-yl)-4-(trifluoromethyl)benzamide] | 7.80

The remaining lines, values ahead:

Row | pIC50 | Compound
18 | 9.12 | NC(=O)c1ccc(-c2cc(NC(=O)c3cc(-c4ncccn4)c(C(F)(F)F)cc3F)n(-c3ccc(F)cc3)n2)cc1 [Compound 81, N-[3-(4-carbamoylphenyl)-1-(4-fluorophenyl)-1H-pyrazol-5-yl]-2-fluoro-5-pyrimidin-2-yl-4-(trifluoromethyl)benzamide]
19 | 8.31 | NC(=O)c1ccnc(-c2cc(NC(=O)c3cc(-c4ncccn4)c(C(F)(F)F)cc3F)n(-c3ccc(F)cc3)n2)n1 [Compound 84, 2-(5-(2-fluoro-5-(pyrimidin-2-yl)-4-(trifluoromethyl)benzamido)-1-(4-fluorophenyl)-1H-pyrazol-3-yl)pyrimidine-4-carboxamide]
20 | 8.15 | CNC(=O)c1cc(NC(=O)c2cc(-c3ncccn3)c(C(F)(F)F)cc2F)n(-c2ccc(F)cc2)n1 [Compound 86, 5-(2-fluoro-5-(pyrimidin-2-yl)-4-(trifluoromethyl)benzamido)-1-(4-fluorophenyl)-N-methyl-1H-pyrazole-3-carboxamide]
21 | 8.18 | O=C(Nc1cc(Cn2cccn2)nn1-c1ccc(F)cc1)c1cc(-c2ncccn2)c(C(F)(F)F)cc1F [Compound 87, N-(3-((1H-pyrazol-1-yl)methyl)-1-(4-fluorophenyl)-1H-pyrazol-5-yl)-2-fluoro-5-(pyrimidin-2-yl)-4-(trifluoromethyl)benzamide]
22 | 7.85 | O=C(Nc1cc(C(=O)N2CCC2)nn1-c1ccc(F)cc1)c1cc(-c2ncccn2)c(C(F)(F)F)cc1F [Compound 88, N-(3-(azetidine-1-carbonyl)-1-(4-fluorophenyl)-1H-pyrazol-5-yl)-2-fluoro-5-(pyrimidin-2-yl)-4-(trifluoromethyl)benzamide]
23 | 8.32 | O=C(Nc1cc(Cc2n[nH]c(=O)s2)nn1-c1ccc(F)cc1)c1cc(-c2ncccn2)c(C(F)(F)F)cc1F [Compound 89, 2-fluoro-N-(1-(4-fluorophenyl)-3-((5-oxo-4,5-dihydro-1,3,4-thiadiazol-2-yl)methyl)-1H-pyrazol-5-yl)-5-(pyrimidin-2-yl)-4-(trifluoromethyl)benzamide]
24 | 7.92 | O=C(Nc1cc(CCO)nn1-c1ccc(F)cc1)c1cc(-c2ncccn2)c(C(F)(F)F)cc1F [Compound 93, 2-fluoro-N-(1-(4-fluorophenyl)-3-(2-hydroxyethyl)-1H-pyrazol-5-yl)-5-(pyrimidin-2-yl)-4-(trifluoromethyl)benzamide]
25 | 7.85 | O=C(Nc1cc(CO)nn1-c1ccc(F)cc1)c1cc(-c2ncccn2)c(C(F)(F)F)cc1F [Compound 97, 2-fluoro-N-(1-(4-fluorophenyl)-3-(hydroxymethyl)-1H-pyrazol-5-yl)-5-(pyrimidin-2-yl)-4-(trifluoromethyl)benzamide]
26 | 8.47 | O=C(Nc1cc(-c2ccc(CCO)cc2)nn1-c1ccc(F)cc1)c1cc(-c2ncccn2)c(C(F)(F)F)cc1F [Compound 101, 2-fluoro-N-(1-(4-fluorophenyl)-3-(4-(2-hydroxyethyl)phenyl)-1H pyrazol-5-yl)-5-(pyrimidin-2-yl)-4-(trifluoromethyl)benzamide]
27 | 8.62 | NCc1cccc(-c2cc(NC(=O)c3cc(-c4ncccn4)c(C(F)(F)F)cc3F)n(-c3ccc(F)cc3)n2)c1 [Compound 103, N-(3-(3-(aminomethyl)phenyl)-1-(4-fluorophenyl)-1H-pyrazol-5-yl)-2-fluoro-5-(pyrimidin-2-yl)-4-(trifluoromethyl)benzamide]
28 | 8.80 | Cn1nnnc1Cc1cc(NC(=O)c2cc(-c3ncccn3)c(C(F)(F)F)cc2F)n(-c2ccc(F)cc2)n1 [Compound 104, 2-fluoro-N-(1-(4-fluorophenyl)-3-((1-methyl-1H-tetrazol-5-yl)methyl)-1H-pyrazol-5-yl)-5-(pyrimidin-2-yl)-4-(trifluoromethyl)benzamide]
29 | 8.15 | NC(=O)OCc1cc(NC(=O)c2cc(-c3ncccn3)c(C(F)(F)F)cc2F)n(-c2ccc(F)cc2)n1 [Compound 110, (5-(2-fluoro-5-(pyrimidin-2-yl)-4-(trifluoromethyl)benzamido)-1-(4-fluorophenyl)-1H-pyrazol-3-yl)methyl carbamate]
